In patent publication US20050036992A1, “Novel use of liver X receptor agonists” (IRM LLC, priority 2002, published 2005):

Columns and labels:
LXRs = details: Lehmann et al. 1997; cited from earlier work
[1] = system: GLUT4 expression in white adipose tissue; experiment: Gene expression in white adipose tissue of mice gavaged with LXR agonist (real time quantitative PCR); assay type: in vivo, mouse; details: C57/B16 mice, 20 mg/kg/day gavage, fasted 12 hours; FIG. 1B
Experimental: (§1) This Example describes coordinated regulation of genes involved in glucose metabolism by LXR agonist in vivo. 10 week old female C57/B16 mice (n=9 per group) were gavaged daily with GW3965 (20 mg/kg/day) or vehicle. At the end of the treatment period, mice were fasted for 12 hours, sacrificed and total RNA was isolated. Gene expression for individual animals was determined by real time quantitative PCR assays. The results are presented in FIGS. 1 and 2 as average expression for each group +/−standard deviation.

[2] = system: PGC-1 and PEPCK expression in livers of LXR null mice; experiment: Liver gene expression in LXR null mice vs wild-type controls; assay type: in vivo, mouse; details: 20 mg/kg/day gavage; FIG. 3A
Experimental: (§2) This Example describes that the effects of LXR agonists on expression of genes involved in glucose metabolism is dependent on LXR expression. LXR null mice or wild-type controls on a mixed background (n=4 per group) were gavaged daily with GW3965 (20 mg/kg/day) or vehicle. At the end of the treatment period, mice were fasted for 12 hours, sacrificed and total RNA was isolated. Gene expression for was determined by real time quantitative PCR assays.

[3] = system: GLUT4 expression in adipose tissue of LXR null mice; experiment: Adipose tissue gene expression in LXR null mice vs wild-type controls; assay type: in vivo, mouse; details: 20 mg/kg/day gavage; FIG. 3B
Experimental: as §2

[4] = system: obese, insulin-resistant ob/ob mice; experiment: Fasting plasma glucose in ob/ob mice, LXR agonist and/or metformin; assay type: in vivo, mouse; details: 3 months, GW3965 20 mg/kg/day, metformin 300 mg/kg/day, FIG. 11
Experimental: This Example describes treatment of mice with a combination of an LXR agonist and a known anti-diabetic drug. Obese, insulin-resistant ob/ob mice were treated with an LXR ligand, GW3965, at 20 mg/kg/day and/or metformin at 300 mg/kg/day for 3 months. Fasting plasma glucose levels were then determined.

[5] = system: genes involved in glucose metabolism in liver; experiment: Gene expression in liver of mice gavaged with LXR agonist (real time quantitative PCR); assay type: in vivo, mouse; details: C57/B16 mice, 20 mg/kg/day gavage, fasted 12 hours; FIG. 1A
Experimental: as §1

[6] = system: C57B16 mice fed a high fat diet; experiment: Glucose tolerance test in diet-induced obese mice; assay type: in vivo, mouse; details: diet-induced obesity, 20 mg/kg/day for one week
Experimental: To further examine effects of LXR agonists on glucose tolerance, C57B16 mice were fed a high fat diet for three months (Clinton/Cybulsky rodent diet; 40% kcal from fat, devoid of cholesterol) to induce obesity. After 3 months, mice were treated for one week with vehicle or 20 mg/kg/day GW3965. Glucose tolerance tests were performed by intraperitoneal injection of glucose (2 g/kg body weight) after 8 hours of fasting (FIG. […]). In addition, effect of GW3965 on glucose tolerance in lean C57B1/6 mice was also examined (FIG. 10B). The lean C57B1/6 mice maintained on normal chow diet and similarly treated as indicated above.

LXRα = biological target: T1, LXRα (Homo sapiens, UniProt Q13133); details: Collins et al. 2002; cited from earlier work
T1 sequence (Q13133 1-447): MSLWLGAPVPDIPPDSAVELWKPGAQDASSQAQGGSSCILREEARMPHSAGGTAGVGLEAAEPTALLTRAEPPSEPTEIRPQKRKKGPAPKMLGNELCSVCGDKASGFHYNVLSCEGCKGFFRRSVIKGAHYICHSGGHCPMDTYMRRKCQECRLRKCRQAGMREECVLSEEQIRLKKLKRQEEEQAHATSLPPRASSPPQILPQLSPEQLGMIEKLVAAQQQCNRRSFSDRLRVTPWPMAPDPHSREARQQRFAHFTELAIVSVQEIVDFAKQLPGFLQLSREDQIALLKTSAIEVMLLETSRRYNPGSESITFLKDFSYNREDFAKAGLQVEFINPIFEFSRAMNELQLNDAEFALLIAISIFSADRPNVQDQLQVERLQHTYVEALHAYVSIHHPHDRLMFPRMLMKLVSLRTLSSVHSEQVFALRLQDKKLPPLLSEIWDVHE

LXRβ = biological target: T2, LXRβ (Homo sapiens, UniProt P55055); details: Collins et al. 2002; cited from earlier work
T2 sequence (P55055 1-460): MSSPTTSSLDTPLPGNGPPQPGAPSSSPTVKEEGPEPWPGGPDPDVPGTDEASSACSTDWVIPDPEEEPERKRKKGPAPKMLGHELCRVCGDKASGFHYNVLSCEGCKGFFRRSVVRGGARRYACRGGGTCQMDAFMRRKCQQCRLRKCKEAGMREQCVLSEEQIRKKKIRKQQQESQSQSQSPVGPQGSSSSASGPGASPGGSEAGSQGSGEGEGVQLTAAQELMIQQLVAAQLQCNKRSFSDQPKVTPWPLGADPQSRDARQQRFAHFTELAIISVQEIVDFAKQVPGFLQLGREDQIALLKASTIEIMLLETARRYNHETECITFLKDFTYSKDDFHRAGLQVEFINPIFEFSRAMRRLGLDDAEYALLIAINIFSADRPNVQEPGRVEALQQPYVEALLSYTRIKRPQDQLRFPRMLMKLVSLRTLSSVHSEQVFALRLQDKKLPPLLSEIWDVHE

human GLUT4 promoter = experiment: Human GLUT4 promoter luciferase reporter in 3T3-L1 adipocytes; assay type: cell-based, mouse; details: 3T3-L1 adipocytes day 8, serum-free media, 24 hours; FIG. 8B
Experimental: To further examine whether LXR ligands activate the human GLUT4 promoter, clonal populations of 3T3-L1 cells carrying stably-integrated luciferase reporters under the control of various truncations of the human GLUT4 promoter were differentiated into adipocytes. On day 8 of differentiation, cells were incubated in serum-free media with the indicated concentrations of T1317. Luciferase activity was measured 24 hours later.

3T3-L1 adipocytes = experiment: Basal glucose uptake in 3T3-L1 adipocytes (14C-labeled 2-DOG); assay type: cell-based; details: 3T3-L1 adipocytes day 10, 24 hours serum-free; FIG. 9
Experimental: 3T3-L1 adipocytes at day 10 of differentiation were incubated for 24 hours with serum-free media supplemented with the indicated concentrations of T1317. The following day, basal glucose uptake (in the absence of insulin) of treated cells was measured in 96-well CytostarT plates using 14 C-labeled 2-DOG. Insulin (1 μg/ml) was used as positive control.

[7] = biological target: T3, glucocorticoid receptor DNA binding domain and the ligand binding region of PPARβ (Homo sapiens, UniProt Q03181); details: Schmidt et al. 1999; cited from earlier work
T3 sequence (Q03181 211-439 limits assumed): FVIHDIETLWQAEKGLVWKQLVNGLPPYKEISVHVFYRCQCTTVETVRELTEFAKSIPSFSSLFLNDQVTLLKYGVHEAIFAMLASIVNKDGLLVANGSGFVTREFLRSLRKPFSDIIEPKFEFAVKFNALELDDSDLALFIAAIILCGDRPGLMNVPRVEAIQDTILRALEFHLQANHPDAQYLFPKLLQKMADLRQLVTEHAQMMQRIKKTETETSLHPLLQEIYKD

[8] = biological target: T4, glucocorticoid receptor DNA binding domain and the ligand binding region of PPARα (Homo sapiens, UniProt Q07869); details: Schmidt et al. 1999; cited from earlier work
T4 sequence (Q07869 239-466 limits assumed): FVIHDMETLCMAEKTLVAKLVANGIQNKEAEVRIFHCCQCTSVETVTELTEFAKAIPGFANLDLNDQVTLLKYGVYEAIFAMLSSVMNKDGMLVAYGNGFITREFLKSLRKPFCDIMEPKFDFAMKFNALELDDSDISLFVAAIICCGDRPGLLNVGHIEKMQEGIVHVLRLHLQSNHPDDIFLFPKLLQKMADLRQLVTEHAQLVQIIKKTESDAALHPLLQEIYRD

[9] = biological target: T5, glucocorticoid receptor DNA binding domain and the ligand binding region of LXRβ (Homo sapiens, UniProt P55055); details: Schmidt et al. 1999; cited from earlier work
T5 sequence (P55055 222-460 limits assumed): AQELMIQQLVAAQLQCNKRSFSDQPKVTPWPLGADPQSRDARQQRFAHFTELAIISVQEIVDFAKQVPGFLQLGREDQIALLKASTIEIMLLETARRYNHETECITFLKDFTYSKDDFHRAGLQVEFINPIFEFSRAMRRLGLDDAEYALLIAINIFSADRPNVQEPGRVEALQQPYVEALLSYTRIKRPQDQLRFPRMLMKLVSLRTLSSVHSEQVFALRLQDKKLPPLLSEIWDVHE

## CC(C)CC[C@@H](O)[C@@H](C)[C@H]1CC[C@H]2[C@@H]3CC=C4C[C@@H](O)CC[C@]4(C)[C@H]3CC[C@]12C [22(R)-hydroxycholesterol]
LXRs
  activation of LXRs: activated

## CC(C)[C@@H](O)CC[C@@H](C)[C@H]1CC[C@H]2[C@@H]3CC=C4C[C@@H](O)CC[C@]4(C)[C@H]3CC[C@]12C [24(S)-hydroxycholesterol]
LXRs
  activation of LXRs: activated

## C[C@H](CC[C@@H]1OC1(C)C)[C@H]1CC[C@H]2[C@@H]3CC=C4C[C@@H](O)CC[C@]4(C)[C@H]3CC[C@]12C [24,25(S)-epoxycholesterol]
LXRs
  activation of LXRs: activated

## O=C(O)Cc1cccc(OCCCN(Cc2cccc(C(F)(F)F)c2Cl)CC(c2ccccc2)c2ccccc2)c1 [GW3965]
[1]
  GLUT4 expression in white adipose tissue: induces
[2]
  regulation of PEPCK expression in livers of LXR null mice: abolished
  regulation of PGC-1 expression in livers of LXR null mice: abolished
[3]
  regulation of GLUT4 expression in adipose tissue of LXR null mice: abolished
[4]
  fasting plasma glucose level compared to control (vehicle): did not show significant difference
[5]
  expression of genes involved in gluconeogenesis in liver: represses
  glucokinase expression in liver: induces
[6]
  insulin resistance: improve
[6]; i.p. glucose 2 g/kg after 8 hours fasting
  glucose tolerance: improve
LXRα
  activation of LXRα: effective in activating
LXRβ
  activation of LXRβ: effective in activating

## O=S(=O)(c1ccccc1)N(CC(F)(F)F)c1ccc(C(O)(C(F)(F)F)C(F)(F)F)cc1 [T1317]
Human GLUT4 promoter
  luciferase activity under control of human GLUT4 promoter truncations: direct target for regulation
3T3-L1 adipocytes
  basal glucose uptake (in the absence of insulin): enhance glucose uptake

## CCCCCCCCCCCCCCOc1ccc(C(=O)O)o1 [TOFA, 5-tetradecyloxy-2-furancarboxylic acid]
[7]
  transactivation of chimeric GR DBD / PPARβ ligand binding region receptor: transactivates
[8]
  transactivation of chimeric GR DBD / PPARα ligand binding region receptor: transactivates
[9]
  transactivation of chimeric GR DBD / LXRβ ligand binding region receptor: transactivates

## CN(C)C(=N)N=C(N)N [metformin]
[4]
  fasting plasma glucose level compared to control (vehicle): did not show significant difference
